Source: ChEMBL document CHEMBL1201862, “PubChem BioAssay data set” (2004)
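Grown in 96-well plates, cells were treated for 48 hours with each compound at five concentrations. Insufficient inhibition: endpoint recorded as highest concentration tested. GI50 is the concentration that inhibits growth by half.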 Activity calls are given as the source filed them. Rule as the data show it: active = GI50 up to about 1.1 µM and inactive = higher.

How the values were obtained:
Assay in all cases: NCI-60 cell line screen, 48 h
[1] = system: MDA-MB-435
[2] = system: UACC-257
[3] = system: OVCAR-3
[4] = system: RXF 393
[5] = system: UACC-62
[6] = system: A549
[7] = system: A498
[8] = system: MOLT-4
[9] = system: KM12
[10] = system: SNB-19
[11] = system: MDA-N
[12] = system: RPMI-8226
[13] = system: IGROV-1
[14] = system: COLO 205
[15] = system: SN12C
[16] = system: CAKI-1
[17] = system: SF-268
[18] = system: PC-3
[19] = system: ACHN

SMILES	GI50 [1]	GI50 [2]	GI50 [3]	GI50 [4]	GI50 [5]	GI50 [6]	GI50 [7]	GI50 [8]	GI50 [9]	GI50 [10]	GI50 [11]	GI50 [12]	GI50 [13]	GI50 [14]	GI50 [15]	GI50 [16]	GI50 [17]	GI50 [18]	GI50 [19]
COc1ccccc1NC(=S)Nc1cc(C)ccn1	> 100 µM (inactive)	> 100 µM (inactive)	> 100 µM (inactive)	96.6 µM (inactive)	> 100 µM (inactive)	> 100 µM (inactive)	> 100 µM (inactive)	> 100 µM (inactive)	> 100 µM (inactive)	> 100 µM (inactive)	> 100 µM (inactive)	> 100 µM (inactive)	74 µM (inactive)	> 100 µM (inactive)	> 100 µM (inactive)	> 100 µM (inactive)	91 µM (inactive)	> 100 µM (inactive)	
COc1cc2c(cc1OCCCC(=O)Nc1cc(C(=O)NCCCN(C)C)n(C)n1)N=CC1CCCN1C2=O (centres undefined)	40.9 µM (inactive)	7.45 µM (inactive)	27.5 µM (inactive)	9.18 µM (inactive)	4.24 µM (inactive)	> 19.7 µM (inactive)	2.82 µM (inactive)	0.347 µM (active)	> 100 µM (inactive)	10 µM (inactive)	23.3 µM (inactive)	5.66 µM (inactive)	6.7 µM (inactive)	8.93 µM (inactive)	7.11 µM (inactive)	21.6 µM (inactive)	16.2 µM (inactive)	17.1 µM (inactive)	6.44 µM (inactive)
CCOC(=O)C(NC(=O)CC)(Nc1ccc(S(=O)(=O)Nc2nc(C)cc(C)n2)cc1)C(F)(F)F (centres undefined)	> 100 µM (inactive)	> 100 µM (inactive)	> 100 µM (inactive)	> 100 µM (inactive)	> 100 µM (inactive)	> 100 µM (inactive)	> 100 µM (inactive)	> 100 µM (inactive)	> 100 µM (inactive)	> 100 µM (inactive)	> 100 µM (inactive)	> 100 µM (inactive)	> 100 µM (inactive)	> 100 µM (inactive)	> 100 µM (inactive)	> 100 µM (inactive)	> 100 µM (inactive)	> 100 µM (inactive)	> 100 µM (inactive)
CC1(C)C(=O)C2(OS(=O)(=O)C(F)(F)F)CCC1C2 (centres undefined)	> 100 µM (inactive)	> 100 µM (inactive)	> 100 µM (inactive)	> 100 µM (inactive)	> 100 µM (inactive)	> 100 µM (inactive)	> 100 µM (inactive)	> 100 µM (inactive)	> 100 µM (inactive)	> 100 µM (inactive)	> 100 µM (inactive)	> 100 µM (inactive)	> 100 µM (inactive)	> 100 µM (inactive)	> 100 µM (inactive)	> 100 µM (inactive)	> 100 µM (inactive)	> 100 µM (inactive)	> 100 µM (inactive)
COC(=O)C1=C(C)C=C(N2CCOCC2)C(C(=O)OC)C1c1ccccc1 (centres undefined)	> 10 µM (inactive)	> 10 µM (inactive)	> 10 µM (inactive)	> 10 µM (inactive)		> 10 µM (inactive)	> 10 µM (inactive)	> 10 µM (inactive)	> 10 µM (inactive)	> 10 µM (inactive)	> 10 µM (inactive)	> 10 µM (inactive)	> 10 µM (inactive)	> 10 µM (inactive)	> 10 µM (inactive)	> 10 µM (inactive)	> 10 µM (inactive)	> 10 µM (inactive)	> 10 µM (inactive)
COC(CO[Si](C)(C)N[Si](C)(C)OCC(OC)c1ccccc1)c1ccccc1 (centres undefined)	> 100 µM (inactive)	> 100 µM (inactive)	> 100 µM (inactive)	> 100 µM (inactive)	> 100 µM (inactive)	> 100 µM (inactive)	> 100 µM (inactive)	> 100 µM (inactive)	> 100 µM (inactive)	> 100 µM (inactive)	> 100 µM (inactive)	> 100 µM (inactive)	> 100 µM (inactive)	> 100 µM (inactive)	> 100 µM (inactive)	> 100 µM (inactive)		> 100 µM (inactive)	> 100 µM (inactive)
COC1(CC[C@@H](C)COC2OC(CO)C(O)C(O)C2O)O[C@H]2C[C@H]3[C@@H]4CC=C5C[C@@H](OC6OC(CO)C(OC7OC(C)C(O)C(O)C7O)C(O)C6OC6OC(C)C(O)C(O)C6O)CC[C@]5(C)[C@H]4CC[C@]3(C)[C@H]2[C@@H]1C (some centres undefined)	2.02 µM (inactive)	3.51 µM (inactive)	2.36 µM (inactive)	3.41 µM (inactive)		2 µM (inactive)	10.2 µM (inactive)	21.7 µM (inactive)	2.1 µM (inactive)	3.17 µM (inactive)	2.61 µM (inactive)	6.62 µM (inactive)	4.59 µM (inactive)	5.15 µM (inactive)	5.85 µM (inactive)	1.53 µM (inactive)	3.18 µM (inactive)	3.13 µM (inactive)	11.4 µM (inactive)
CC(=O)C(C(=O)c1ccc(C)cc1)[C@@H]1OC(C)(C)O[C@@H]1[C@H]1COC(C)(C)O1 (some centres undefined)	9.75 µM (inactive)	12.4 µM (inactive)	7.66 µM (inactive)	9.62 µM (inactive)	10.9 µM (inactive)	19.6 µM (inactive)	36.9 µM (inactive)	2.61 µM (inactive)	4.02 µM (inactive)	15.7 µM (inactive)	7.21 µM (inactive)	2.36 µM (inactive)	12.7 µM (inactive)	18.1 µM (inactive)	3.97 µM (inactive)	21.5 µM (inactive)	9.23 µM (inactive)	8.57 µM (inactive)	9.59 µM (inactive)
C=C1C(=O)OC2/C=C(\CO)CC/C=C(\CO)CC(OC(=O)C(C)C)C12 (centres undefined)	8.75 µM (inactive)	12.2 µM (inactive)	11.6 µM (inactive)	5.83 µM (inactive)	14.1 µM (inactive)	20.1 µM (inactive)	21.6 µM (inactive)	3.25 µM (inactive)	18.2 µM (inactive)	21.5 µM (inactive)	5.68 µM (inactive)	3.37 µM (inactive)	15.7 µM (inactive)	2.16 µM (inactive)	13.3 µM (inactive)	1.9 µM (inactive)	13.9 µM (inactive)	16.6 µM (inactive)	1.95 µM (inactive)
CNC(=O)O/N=C1\N(C)CN(c2ccccc2)C12CCN(CCCC(=O)c1ccc(F)cc1)CC2	45.9 µM (inactive)	20.1 µM (inactive)	55.1 µM (inactive)	83.6 µM (inactive)	> 100 µM (inactive)	81.3 µM (inactive)	40 µM (inactive)	69 µM (inactive)	27.7 µM (inactive)	> 100 µM (inactive)	39.4 µM (inactive)	> 100 µM (inactive)	46.8 µM (inactive)	18.2 µM (inactive)	> 100 µM (inactive)	> 100 µM (inactive)	> 100 µM (inactive)	> 100 µM (inactive)	83.8 µM (inactive)
Cn1c2ccccc2c(=S)c2cc(NC(=O)CCCCC(=O)Nc3ccc4c(c3)c(=S)c3ccccc3n4C)ccc21	> 100 µM (inactive)	> 100 µM (inactive)	> 100 µM (inactive)	> 100 µM (inactive)	> 100 µM (inactive)	> 100 µM (inactive)	> 100 µM (inactive)	> 100 µM (inactive)	> 100 µM (inactive)	> 100 µM (inactive)	> 100 µM (inactive)	> 100 µM (inactive)	> 100 µM (inactive)	> 100 µM (inactive)	> 100 µM (inactive)	> 100 µM (inactive)	> 100 µM (inactive)	> 100 µM (inactive)	> 100 µM (inactive)
Nc1csc(-c2scc3c2OCCO3)c1N	15.5 µM (inactive)	16.7 µM (inactive)	14.8 µM (inactive)	17.9 µM (inactive)	14.4 µM (inactive)	21.4 µM (inactive)	17.6 µM (inactive)	27.8 µM (inactive)	20.4 µM (inactive)	32.7 µM (inactive)	15.4 µM (inactive)	16.9 µM (inactive)	22.5 µM (inactive)	28.8 µM (inactive)	17.3 µM (inactive)	32.1 µM (inactive)	18.8 µM (inactive)	23 µM (inactive)	36.4 µM (inactive)
Cc1ccnc2[nH]c3ccccc3c(=O)c12	19.6 µM (inactive)	39.4 µM (inactive)	23.7 µM (inactive)	15.6 µM (inactive)	16.9 µM (inactive)		28.8 µM (inactive)	20.4 µM (inactive)	13.1 µM (inactive)	29.6 µM (inactive)	21 µM (inactive)	25.9 µM (inactive)	17.5 µM (inactive)	19.8 µM (inactive)	21.3 µM (inactive)	8.41 µM (inactive)	18.9 µM (inactive)	21.8 µM (inactive)	20.5 µM (inactive)
O=c1c(O)c(-c2cc(O)c(O)c(O)c2)oc2cc(O)cc(O)c12 [MYRICETIN]	17.7 µM (inactive)	29.2 µM (inactive)	30.6 µM (inactive)	20.8 µM (inactive)	39.5 µM (inactive)	33.8 µM (inactive)	> 100 µM (inactive)	54.6 µM (inactive)	17.7 µM (inactive)		10 µM (inactive)	36.1 µM (inactive)	33.9 µM (inactive)	65.9 µM (inactive)		23.6 µM (inactive)	44.2 µM (inactive)	> 100 µM (inactive)	79.8 µM (inactive)
